pIC50, pKi: −log10 of the molar value.
What was measured:
[1] = tested on: electroconvulsive threshold (tonic convulsions); experiment: Electroconvulsive Threshold Test (ECT); format: in vivo, rats; details: rats, 3, 10 and 30 mpk p.o., mesylate salt
Procedure: Test compound E1-8.2 was administered as the free base.
Rats were administered ECS (rectangular current: 0.6 ms pulse width, 1.5 s duration, 200 Hz) via earclip electrodes connected to a constant current shock generator (Ugo Basile: type 7801). Test compounds were administered by oral gavage (p.o.) 1 hour before the test at a dose volume of 5 mL/kg.
Treatment groups of 20 rats were exposed to ECS as follows: The first animal was exposed to 30 mA of ECS. […] (increases of 5 mA) until the first tonic convulsion was observed. Once the first tonic convulsion was observed, the intensity of ECS was decreased by 2 mA for the next animal and then decreased or increased by 2 mA from animal to animal depending on whether the previous animal convulsed or not. If the first animal did convulse (tonic convulsions) within 5 seconds, animal no2 is exposed to 25 mA, etc. . . . (decreases of 5 mA) until the absence of tonic convulsions was observed. At this point, the intensity of ECS was increased by 2 mA for the next animal and then decreased or increased by 2 mA from animal to animal depending on whether the previous animal convulsed or not. The minimum current intensity applied is 5 mA and the maximum 95 mA. The first 5 animals serve to approach threshold current and were not included in the analysis. The results are presented as the mean current intensity administered to the final 15 animals of a group. The test was performed blind. A positive percent change indicates an anticonvulsant effect. A negative percent change indicates a proconvulsant effect. The test substance was evaluated at 4 doses, typically using 0.5% dimethylsulfoxide, 4% hydroxypropyl-b-cyclodextrin water as a vehicle, and administered p.o. 60 minutes before ECS, and compared with a vehicle control group. Diazepam (16 mg/kg p.o.), administered under the same experimental conditions, was used as reference substance. The experiment included 6 groups. Data with the test substance was analyzed by comparing treated groups with vehicle control using one-way ANOVA followed by Dunnett's t tests.

[2] = tested on: haloperidol-induced catalepsy; experiment: Haloperidol-Induced Catalepsy (HIC) Model; format: in vivo; details: rats
From the text: The Haloperidol-induced Catalepsy (HIC) model detects antipsychotic activity and the action of NR2B selective antagonists (Steece-Collier et al. Exp. Neurol. 163: 239, 2000) and was based on methods described by Chermat and Simon (J. Pharmacol., 6, 493-496, 1975). The capacity to induce catalepsy serves as an index of the liability of a test substance to induce extrapyramidal side-effects, in particular Parkinsonism. Antagonism of antipsychotic-induced catalepsy can thus serve to detect anti-Parkinson potential.
Rats were injected with haloperidol (1 mg/kg i.p.) and were examined for catalepsy at 30 minute intervals up to 360 minutes. Presence (+) or absence (−) of catalepsy was assessed by three procedures: 1) imposed crossing of the ipsilateral fore- and hind-limbs; 2) placing the animal in the Buddha position; 3) the tilting board, an automatic device that, 5 seconds after positioning the rat, displaces the rat from a horizontal to vertical position and back while it clings to a wire grid with its front paws. Akinesia and catalepsy were assessed depending on whether or not the animal moves before (akinesia) or during operation of the board (catalepsy).
The 4 scores were cumulated over time to give a global catalepsy score per animal. Six rats were studied per group. The test was performed blind (test substances versus vehicle). Test substances were evaluated at 1 or more doses, administered typically using 0.5% dimethylsulfoxide, 4% hydroxypropyl-b-cyclodextrin water as a vehicle p.o. 15 minutes before haloperidol (i.e. 45 minutes before the first measurement), and compared with a vehicle control group.
Amphetamine (8 mg/kg p.o.), administered 60 minutes before the test (i.e. 90 minutes before the first measurement), was used as reference substance. Data with the test substances were analyzed by comparing treated groups with vehicle control using Kruskal-Wallis Test followed by Mann-Whitney U tests at each time and for cumulated score. Data with the reference substance were analyzed using Mann-Whitney U tests.

NR2B receptor = NR2B receptor (Rattus norvegicus (Rat), UniProt P35439+Q00960); experiment: [3H] (E)-N1-(2-methoxybenzyl)-cinnamidine radioligand binding, rat brain membranes
Procedure: This example describes NMDA receptor binding assays using two different radioligands, [^3H] […] An established binding assay using the non-selective NMDA receptor ligand [^3H] […] The binding assay method using the NR2B selective receptor ligand [^3H] […] This assay serves as a selective measure of NR2B receptor binding activity in native rat brain receptors. Briefly, the brains of Male Wistar rats were homogenized (Polytron) before centrifugation at 40,000×g for 15 minutes at 4° C. After 2 washes, the final pellet was homogenized and stored at −80° C. The protein concentration was determined by Bradford assay.
[^3H] […] Thus, using [^3H]
Test compounds were solubilized at 10 mM in DMSO. Then the dilutions were performed with a constant solvent concentration (1% DMSO) in the assay.
After incubation for 4.5 h at room temperature, the assays were filtered on GF/B filters pretreated with 0.3% (v/v) PEI with a Brandel system for [^3H] […] The experiment was performed in duplicate (n=2).

CYP2D6 = CYP2D6 (Homo sapiens (Human), UniProt P10635); experiment: CYP P450 enzyme inhibition, pooled human liver microsome; format: in vitro ADME; details: 10 μM, pooled HLM, dextromethorphan 5 μM
Procedure: Those CYP isoforms and their corresponding probe substrates are as follows: CYP1A2 (phenacetin, 30 μM), CYP2C9 (tolutamide, 100 μM), CYP2C19 (S-mephenytoin, 40 μM), CYP2D6 (dextromethorphan, 5 μM) and CYP3A4 (midazolam, 1 μM). All probe substrates were used at concentrations near or below their Kms. For experiment, a reaction mixture of test compound at 10 μM or in serial dilution, CYP probe substrate described above and 0.2 mg/mL pooled HLM in phosphate buffer, pH 7.4 in a final volume of 200 μL was pre-incubated at 37° C. for 10 minutes in triplicate. The reaction was initiated by addition of NADPH at final concentration of 1 mM. The reaction was terminated after 10 minutes (CYP1A2, CYP2D6 and CYP3A4) or 30 minutes (CYP2C9 and CYP2C19) by addition of 100 μL ice-cold acetonitrile with internal standard (IS). The samples were then centrifuged at 13,000 rpm and the supernatants were injected to LC-MS/MS (Agilent Technologies) to quantify the concentration of the specific metabolites of the probe substrates formed by individual CYP450 isoforms. The inhibition ratio is calculated as: (Mt−M0)/Mwater×100% in which Mt and M0 represent the concentrations of the specific probe substrate metabolite, which was formed by individual CYP450 isoform, at the beginning and end of the reaction in the presence of test compound; while Mwater represents the concentration of the specific metabolite at the end of the reaction in the absence of test compound. Test compound concentration-dependent response data experiments performed in triplicate.

human NR1/NR2B = human NR1/NR2B (Homo sapiens (Human), UniProt Q05586+Q13224); experiment: NR2B antagonist activity, Fluo-4 calcium influx in HEK293 cells; format: cell-based
Procedure: HEK293 cell lines stably expressing cloned human NR1/NR2B and NR1/NR2A, respectively, were established according to standard previously described methods (Hansen et al., Comb. Chem High Throughput Screen. 11:304, 2008). Activation of the NR2A or NR2B subtype of NMDA receptor with glutamate as an agonist and glycine co-agonist on these cells results in calcium influx, which can be monitored with fluorescent indicator Fluo-4.
For experiments, the cells were seeded onto poly-D-lysine-coated 96-well black plates with clear bottom (Corning) at a density of ˜50,000 cells/well. After overnight culture, the growth medium was removed from the wells and the cells were incubated at 37° C. for 60 min in Hanks buffer containing 4 μM fluo-4-AM (Invitrogen) and 0.1% bovine serum albumin (BSA). After dye-loading, the cells were washed three times with Hanks buffer and incubated for 10 min at room temperature with various concentrations of test compounds prepared in Hanks buffer with 0.1% BSA. The cell plates were placed onto FDSS pCell fluorescence reader (Hamamatsu). After 20 sec reading of background fluorescence, agonist glutamate at final 100 μM and co-agonist glycine at final 50 μM were added to the cells to activate the receptor, and the resulting fluorescence changes were recorded and quantified. Based on the changes in fluorescence intensity, the pharmacological effect of test compounds were analyzed and the IC50 values derived from a non-linear least squares fitting of the concentration-dependent response to a standard logistic equation using Prism (Graphpad, Inc): Amplitude=Max Amplitude/(1+(IC50/[antagonist])^n).

Sequence of human NR1/NR2B (Q13224 27-1484, other chains not shown): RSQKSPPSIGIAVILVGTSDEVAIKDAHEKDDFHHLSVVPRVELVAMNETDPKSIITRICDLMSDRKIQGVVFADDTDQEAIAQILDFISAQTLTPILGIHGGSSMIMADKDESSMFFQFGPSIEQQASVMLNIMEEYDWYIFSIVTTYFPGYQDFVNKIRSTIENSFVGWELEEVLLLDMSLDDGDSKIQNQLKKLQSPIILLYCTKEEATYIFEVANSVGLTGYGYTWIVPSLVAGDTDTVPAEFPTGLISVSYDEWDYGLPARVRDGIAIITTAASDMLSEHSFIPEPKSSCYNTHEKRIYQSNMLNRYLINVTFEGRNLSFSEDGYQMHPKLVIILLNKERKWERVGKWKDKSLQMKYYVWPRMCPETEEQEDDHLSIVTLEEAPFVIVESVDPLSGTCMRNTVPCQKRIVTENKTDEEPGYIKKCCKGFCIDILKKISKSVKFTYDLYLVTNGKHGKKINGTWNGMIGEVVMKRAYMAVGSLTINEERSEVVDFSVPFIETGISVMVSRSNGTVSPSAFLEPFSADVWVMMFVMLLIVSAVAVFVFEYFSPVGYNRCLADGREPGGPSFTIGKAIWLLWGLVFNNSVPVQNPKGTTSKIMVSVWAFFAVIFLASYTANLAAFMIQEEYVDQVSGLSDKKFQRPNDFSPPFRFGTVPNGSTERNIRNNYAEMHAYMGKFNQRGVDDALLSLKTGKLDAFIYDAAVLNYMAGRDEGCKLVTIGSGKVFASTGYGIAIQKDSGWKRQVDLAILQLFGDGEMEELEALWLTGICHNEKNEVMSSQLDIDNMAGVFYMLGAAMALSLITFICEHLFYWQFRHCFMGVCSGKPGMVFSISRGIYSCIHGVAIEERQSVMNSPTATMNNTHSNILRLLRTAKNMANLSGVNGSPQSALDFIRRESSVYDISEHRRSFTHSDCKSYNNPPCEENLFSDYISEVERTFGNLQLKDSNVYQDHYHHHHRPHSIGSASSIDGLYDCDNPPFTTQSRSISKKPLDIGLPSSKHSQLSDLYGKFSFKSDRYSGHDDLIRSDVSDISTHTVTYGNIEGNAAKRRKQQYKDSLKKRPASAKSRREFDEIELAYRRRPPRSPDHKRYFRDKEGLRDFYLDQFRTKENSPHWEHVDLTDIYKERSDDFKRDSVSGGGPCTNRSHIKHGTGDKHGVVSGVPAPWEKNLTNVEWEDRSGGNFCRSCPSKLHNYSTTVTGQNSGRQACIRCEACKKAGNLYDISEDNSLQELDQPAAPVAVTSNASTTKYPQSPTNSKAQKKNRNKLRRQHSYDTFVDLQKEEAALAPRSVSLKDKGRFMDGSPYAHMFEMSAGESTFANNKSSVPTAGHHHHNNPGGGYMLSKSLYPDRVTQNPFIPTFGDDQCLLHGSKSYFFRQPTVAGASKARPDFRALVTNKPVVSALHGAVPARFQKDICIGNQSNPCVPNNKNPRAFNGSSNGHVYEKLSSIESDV
Sequence of NR2B receptor (Q00960 27-1482, other chains not shown): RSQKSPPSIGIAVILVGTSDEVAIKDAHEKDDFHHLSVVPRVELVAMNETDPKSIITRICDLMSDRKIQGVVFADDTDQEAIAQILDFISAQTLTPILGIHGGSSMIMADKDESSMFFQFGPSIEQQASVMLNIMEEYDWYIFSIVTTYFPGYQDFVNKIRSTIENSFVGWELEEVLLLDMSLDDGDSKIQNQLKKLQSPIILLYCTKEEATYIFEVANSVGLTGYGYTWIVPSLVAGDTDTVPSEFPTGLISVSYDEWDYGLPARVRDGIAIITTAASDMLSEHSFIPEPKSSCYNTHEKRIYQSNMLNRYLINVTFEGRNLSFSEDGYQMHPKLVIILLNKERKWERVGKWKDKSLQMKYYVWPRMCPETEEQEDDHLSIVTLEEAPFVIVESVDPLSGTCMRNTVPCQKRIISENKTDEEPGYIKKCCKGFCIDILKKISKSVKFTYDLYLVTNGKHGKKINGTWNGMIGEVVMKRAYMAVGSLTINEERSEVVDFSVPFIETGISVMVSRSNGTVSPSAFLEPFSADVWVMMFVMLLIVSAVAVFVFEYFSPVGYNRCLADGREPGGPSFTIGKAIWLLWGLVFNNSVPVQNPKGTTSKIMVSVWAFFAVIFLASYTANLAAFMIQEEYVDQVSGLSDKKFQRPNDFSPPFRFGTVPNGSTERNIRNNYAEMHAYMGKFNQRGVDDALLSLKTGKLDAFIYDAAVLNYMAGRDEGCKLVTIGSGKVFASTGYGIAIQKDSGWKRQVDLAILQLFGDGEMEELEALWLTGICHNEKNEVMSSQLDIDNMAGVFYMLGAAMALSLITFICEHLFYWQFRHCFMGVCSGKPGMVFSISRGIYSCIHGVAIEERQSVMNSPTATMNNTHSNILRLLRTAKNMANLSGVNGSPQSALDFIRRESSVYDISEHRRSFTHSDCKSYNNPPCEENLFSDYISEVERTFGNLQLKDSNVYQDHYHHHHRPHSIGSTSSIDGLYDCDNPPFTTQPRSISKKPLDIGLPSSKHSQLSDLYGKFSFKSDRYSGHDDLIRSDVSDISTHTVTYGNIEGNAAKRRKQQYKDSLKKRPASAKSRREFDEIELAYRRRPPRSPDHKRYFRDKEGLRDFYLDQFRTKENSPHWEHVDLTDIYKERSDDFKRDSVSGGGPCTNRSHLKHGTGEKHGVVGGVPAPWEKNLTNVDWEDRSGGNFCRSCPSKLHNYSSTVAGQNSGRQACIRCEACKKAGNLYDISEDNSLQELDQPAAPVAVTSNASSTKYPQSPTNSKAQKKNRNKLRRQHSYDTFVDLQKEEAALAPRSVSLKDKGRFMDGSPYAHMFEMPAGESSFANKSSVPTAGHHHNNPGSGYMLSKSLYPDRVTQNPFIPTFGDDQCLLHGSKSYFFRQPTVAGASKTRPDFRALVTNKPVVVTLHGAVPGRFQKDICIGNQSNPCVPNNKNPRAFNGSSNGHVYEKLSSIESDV
Sequence of CYP2D6 (P10635 whole entry): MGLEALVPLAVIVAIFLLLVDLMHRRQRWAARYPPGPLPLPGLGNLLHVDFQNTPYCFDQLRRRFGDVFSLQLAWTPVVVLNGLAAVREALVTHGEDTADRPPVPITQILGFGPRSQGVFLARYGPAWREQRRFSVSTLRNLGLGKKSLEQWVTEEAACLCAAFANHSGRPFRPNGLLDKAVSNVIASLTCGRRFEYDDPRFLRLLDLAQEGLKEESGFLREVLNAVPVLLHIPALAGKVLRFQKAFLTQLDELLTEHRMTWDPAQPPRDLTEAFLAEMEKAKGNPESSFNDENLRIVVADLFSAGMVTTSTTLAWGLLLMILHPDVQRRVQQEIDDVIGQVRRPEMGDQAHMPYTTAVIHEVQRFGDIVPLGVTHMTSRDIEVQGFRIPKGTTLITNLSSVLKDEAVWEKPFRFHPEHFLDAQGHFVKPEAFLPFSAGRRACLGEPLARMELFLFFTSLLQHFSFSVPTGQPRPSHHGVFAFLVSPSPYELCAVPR

Cc1ccc(COC(=O)N2CC[C@H](CNc3nccn4cnnc34)C(F)(F)C2)cc1 [Compound E1-1.2, (+)-R-4-methylbenzyl 4-(([1,2,4]triazolo[4,3-a]pyrazin-8-ylamino)methyl)-3,3-difluoropiperidine-1-carboxylate]
electroconvulsive threshold, pro-/anticonvulsant activity [1]: robust anticonvulsant activity
cumulated score of catalepsy over 360 mins ([2]; 1 mg/kg p.o.): 17.0
cumulated score of catalepsy over 360 mins ([2]; 3 mg/kg p.o.): 15.8
cumulated score of catalepsy over 360 mins ([2]; p.o., dose not printed in the sentence (other doses 1 and 3 mg/kg)): 2.0
displacement of [3H] (E)-N1-(2-methoxybenzyl)-cinnamidine at the NR2B receptor high affinity site (NR2B receptor; rat brain membranes): 96%
pKi (NR2B receptor; read-out: Ki at the NR2B receptor high affinity site): 8.28
CYP2D6 @ 10 μM (%) (CYP2D6): 14%
pIC50 (human NR1/NR2B; Table 2.1, HEK293 human NR1/NR2B, glutamate 100 μM, glycine 50 μM): 7.68
pIC50 (human NR1/NR2B; Table 2.2): 7.68
pIC50 (human NR1/NR2B; Table 2.3): 7.68

— patent US10294230B2, “3,3-difluoropiperidine carbamate heterocyclic compounds as NR2B NMDA receptor antagonists” (Rugen Holdings (Cayman) Limited, priority 2015, dated 2019)
